# Reference: US20180214428A1, “3-(1H-INDOL-2-YL)-1H-PYRAZOLO[3,4-B]PYRIDINES AND THERAPEUTIC USES THEREOF” (Samumed, LLC, priority 2015, published 2018)
# What was measured:
# Assay type in all cases: cell-based, human
# SW480 colon cancer cells = assay: Cell viability assay (CellTiter-Blue) in SW480 colon cancer cells; details: Homo sapiens; for EC50: 96 h, four days, CellTiter-Blue; for inhibition at 10 µM: given for EC50 of >10 μM, read-out: percent inhibition at 10 μM
# Description: Representative compounds were screened using the following assay procedure to assess the effect on cell viability as described below.
# Each compound was dissolved in DMSO as a 10 mM stock and used to prepare compound source plates. Serial dilution (1:3, 8-point dose-response curves from 10 μM to 0.0045 μM) and compound transfer was performed using the ECHO 550 (Labcyte, Sunnyvale, Calif.) into 96-well clear bottom, black-walled plates (Corning-Costar).
# Approximately 2×10^3 SW480 colon cancer cells were seeded into each well and allowed to incubate in the presence or absence of compound for four days at 37° C./5% CO2. Eight replicates of DMSO-treated cells served as controls and cells treated with compound were performed in duplicate.
# After incubation, 20 μL of CellTiter-Blue (Promega) was added to each well allowed to incubate for approximately 3 hours. This reagent was a buffered solution which contains resazurin, metabolically active cells were able to reduce rezarurin (blue) into resorufin (pink) which was highly fluorescent. This measured fluorescence was used as a readout for cell viability.
# After incubation, the plates were read at Ex 560 nm Em 590 nm (Cytation 3, BioTek). Dose-response curves were generated and EC50 concentration values were calculated using non-linear regression curve fit in the GraphPad Prism (San Diego, Calif.) or Dotmatics' Studies Software (Bishops Stortford, UK). For EC50 of >10 μM, the percent inhibition at 10 μM is provided.
# IL-6 = IL-6 inhibition in LPS-stimulated THP-1 monocytes (HTRF); details: Homo sapiens, THP-1 cells; for EC50: 500 ng/mL LPS, 22 h, HTRF IL-6 readout, 10-point dose-response from 10 μM; for inhibition at 10 µM: LPS stimulated, given only where EC50 >10 μM, top concentration 10 μM, read-out: percentage in parentheses beside EC50 >10 (IL-6 inhibition)
# Description: Human monocyte cell line (THP-1 cells; Catalog # TIB-202, ATCC, Manassas, Va.) were cultured in Roswell Park Memorial Institute (RPMI) 1640 Medium (Catalog #21870-100, Buffalo, N.Y.) with 1% L-glutamine, 1% HEPES, 1% Sodium Pyruvate, 2% Sodium Bicarbonate supplemented with 100 units/mL penicillin, 50 μg/mL streptomycin, 2-mercaptoethanol (0.05 mM) [basal medium] and 10% fetal bovine serum (Catalog #16140089, Life Technologies, Carlsbad, Calif.) at 37° C. and 5% CO2.
# THP-1 cells were cultured in basal media with 1% FBS for 24 hours before the start of the assay. Each compound was dissolved in DMSO as a 10 mM stock and used to prepare compound source plates. Serial dilution (1:3, 10-point dose-response curves starting from 10 μM) and compound transfer was performed using the ECHO 550 (Labcyte, Sunnyvale, Calif.) into 384-well white low volume assay plates (Greiner Bio-One) with appropriate DMSO backfill for a final DMSO concentration of 0.1%. THP-1 cells were plated at 5000 cells/well in the 384-well plates and incubated at 37° C. for 2 h. 500 ng/mL of LPS was added after 2 hours and cells were incubated for another 22 hours at 37° C. Plates were spun in a centrifuge for 1 minute at […] and a mixture of anti-IL6 XL665, and anti-IL6 Cryptate diluted in reconstitution buffer (Cisbio Inc.) was added to each well. Following incubation for 3 hrs at room temperature, Homogeneous Time-Resolved Fluorescence (HTRF) was measured using the Envision (Perkin Elmer) at 665 nm and […]. The ratio of fluorescence at 665 nm to 620 nm was used as a readout for IL6 quantification. All samples were processed in duplicate. Readings were normalized to DMSO treated cells and normalized activities were utilized for EC50 calculations using the dose-response log (inhibitor) vs. response variable slope (four parameters) nonlinear regression feature available in GraphPad Prism 5.0 (or Dotmatics). For EC50 of >10 μM, the percent inhibition at 10 μM is provided.
# [1] = system: Wnt activity (Sp5-Luc reporter gene, SW480 colon carcinoma cells); assay: Screening assay for Wnt activity: Sp5-Luc reporter gene assay in SW480 cells; details: Homo sapiens; for EC50: overnight incubation
# Excerpt: The screening assay for Wnt activity is described as follows. Reporter cell lines can be generated by stably transducing cancer cell lines (e.g., colon cancer) or primary cells (e.g., IEC-6 intestinal cells) with a lentiviral construct that includes a Wnt-responsive promoter driving expression of the firefly luciferase gene.
# SW480 colon carcinoma cells were transduced with a lentiviral vector expressing luciferase with a human Sp5 promoter consisting of a sequence of eight TCF/LEF binding sites. SW480 cells stably expressing the Sp5-Luc reporter gene and a hygromycin resistance gene were selected by treatment with 150 μg/mL of hygromycin for 7 days. These stably transduced SW480 cells were expanded in cell culture and used for all further screening activities. Each compound was dissolved in DMSO as a 10 mM stock and used to prepare compound source plates. Serial dilution (1:3, 10-point dose-response curves starting from 10 μM) and compound transfer was performed using the ECHO 550 (Labcyte, Sunnyvale, Calif.) into 384-well white solid bottom assay plates (Greiner Bio-One) with appropriate DMSO backfill for a final DMSO concentration of 0.1%. For Sp5-Luc reporter gene assays, the cells were plated at 4,000 cells/well in 384-well plates with medium containing 1% fetal bovine serum and incubated overnight at 37° C. and 5% CO2. Following incubation, 20 μl of BrightGlo luminescence reagent (Promega) was added to each well of the 384-well assay plates. The plates were placed on an orbital shaker for 2 min and then luminescence was quantified using the Envision (Perkin Elmer) plate reader. Readings were normalized to DMSO only treated cells, and normalized activities were utilized for EC50 calculations using the dose-response log (inhibitor) vs. response variable slope (four parameters) nonlinear regression feature available in GraphPad Prism 5.0 (or Dotmatics). For EC50 of >10 μM, the percent inhibition at 10 μM is provided.
EC50 (SW480 colon cancer cells) [µM],EC50 (IL-6) [µM],EC50 [1] [µM],SMILES,inhibition at 10 µM (SW480 colon cancer cells) [%],inhibition at 10 µM (IL-6) [%],"inhibition at 10 µM ([1]; at 10 μM, given for EC50 of >10 μM, read-out: percent inhibition at 10 μM) [%]"
> 10,> 10,2.83,"O=C(Nc1cncc(-c2cnc3[nH]nc(-c4cc5c(-c6ccc(F)cc6)cccc5[nH]4)c3c2)c1)c1ccccc1 [Compound 32, N-(5-(3-(4-(4-Fluorophenyl)-1H-indol-2-yl)-1H-pyrazolo[3,4-b]pyridin-5-yl)pyridin-3-yl)benzamide]",32.5,17.7,–
4.83,0.212,2.3,"Fc1ccc(-c2cccc3[nH]c(-c4n[nH]c5ncc(-c6cncc(CN7CCCC7)c6)cc45)cc23)cc1 [Compound 35, 3-(4-(4-Fluorophenyl)-1H-indol-2-yl)-5-(5-(pyrrolidin-1-ylmethyl)pyridin-3-yl)-1H-pyrazolo[3,4-b]pyridine]",–,–,–
> 10,> 10,3.66,"Fc1ccc(-c2cccc3[nH]c(-c4n[nH]c5ncc(-c6cncc(CN7CCCCC7)c6)cc45)cc23)cc1 [Compound 36, 3-(4-(4-Fluorophenyl)-1H-indol-2-yl)-5-(5-(piperidin-1-ylmethyl)pyridin-3-yl)-1H-pyrazolo[3,4-b]pyridine]",59.2,45.5,–
5.1,> 10,0.543,"O=C(Nc1cncc(-c2cnc3[nH]nc(-c4cc5c(-c6ccc(F)cc6)cccc5[nH]4)c3c2)c1)C1CCC1 [Compound 41, N-(5-(3-(4-(4-Fluorophenyl)-1H-indol-2-yl)-1H-pyrazolo[3,4-b]pyridin-5-yl)pyridin-3-yl)cyclobutanecarboxamide]",–,10.7,–
> 10,> 10,2.75,"Fc1ccc(-c2cccc3[nH]c(-c4n[nH]c5ncc(-c6cncnc6)cc45)cc23)cc1 [Compound 47, 3-(4-(4-Fluorophenyl)-1H-indol-2-yl)-5-(pyrimidin-5-yl)-1H-pyrazolo[3,4-b]pyridine]",11.8,35.6,–
0.589,0.276,0.099,"Nc1cncc(-c2cnc3[nH]nc(-c4cc5c(-c6ccccc6F)cccc5[nH]4)c3c2)c1 [Compound 49, 5-(3-(4-(2-Fluorophenyl)-1H-indol-2-yl)-1H-pyrazolo[3,4-b]pyridin-5-yl) pyridin-3-amine]",–,–,–
2.7,2.69,5.84,"CCNCc1cncc(-c2cnc3[nH]nc(-c4cc5c(-c6ccccc6F)cccc5[nH]4)c3c2)c1 [Compound 52, N-((5-(3-(4-(2-Fluorophenyl)-1H-indol-2-yl)-1H-pyrazolo[3,4-b]pyridin-5-yl)pyridin-3-yl)methyl)ethanamine]",–,–,–
> 10,4.64,2.17,"CC(C)(C)CC(=O)Nc1cncc(-c2cnc3[nH]nc(-c4cc5c(-c6ccccc6F)cccc5[nH]4)c3c2)c1 [Compound 61, N-(5-(3-(4-(2-Fluorophenyl)-1H-indol-2-yl)-1H-pyrazolo[3,4-b]pyridin-5-yl)pyridin-3-yl)-3,3-dimethylbutanamide]",25.2,–,–
> 10,9.78,1.15,"O=C(Nc1cncc(-c2cnc3[nH]nc(-c4cc5c(-c6ccccc6F)cccc5[nH]4)c3c2)c1)C1CCCC1 [Compound 66, N-(5-(3-(4-(2-Fluorophenyl)-1H-indol-2-yl)-1H-pyrazolo[3,4-b]pyridin-5-yl)pyridin-3-yl)cyclopentanecarboxamide]",53.2,–,–

# More lines, now with the values behind:
SMILES,EC50 (SW480 colon cancer cells) [µM],EC50 (IL-6) [µM],EC50 [1] [µM],inhibition at 10 µM (SW480 colon cancer cells) [%],inhibition at 10 µM (IL-6) [%],"inhibition at 10 µM ([1]; at 10 μM, given for EC50 of >10 μM, read-out: percent inhibition at 10 μM) [%]"
"Fc1cccc(-c2cccc3[nH]c(-c4n[nH]c5ncc(-c6cccnc6)cc45)cc23)c1 [Compound 2, 3-(4-(3-Fluorophenyl)-1H-indol-2-yl)-5-(pyridin-3-yl)-1H-pyrazolo[3,4-b]pyridine]",> 10,0.015,0.295,4,–,–
"CN(C)c1cncc(-c2cnc3[nH]nc(-c4cc5c(-c6cccc(F)c6)cccc5[nH]4)c3c2)c1 [Compound 5, 5-(3-(4-(3-Fluorophenyl)-1H-indol-2-yl)-1H-pyrazolo[3,4-b]pyridin-5-yl)-N,N-dimethylpyridin-3-amine]",2.59,0.899,0.672,–,–,–
"CCCC(=O)Nc1cncc(-c2cnc3[nH]nc(-c4cc5c(-c6cccc(F)c6)cccc5[nH]4)c3c2)c1 [Compound 14, N-(5-(3-(4-(3-Fluorophenyl)-1H-indol-2-yl)-1H-pyrazolo[3,4-b]pyridin-5-yl)pyridin-3-yl)butyramide]",> 10,> 10,0.211,9.9,20.3,–
"Fc1cccc(-c2cccc3[nH]c(-c4n[nH]c5ncc(-c6ccncc6)cc45)cc23)c1 [Compound 15, 3-(4-(3-Fluorophenyl)-1H-indol-2-yl)-5-(pyridin-4-yl)-1H-pyrazolo[3,4-b]pyridine]",> 10,> 10,> 10,31.5,55.9,26
"O=C(Nc1cncc(-c2cnc3[nH]nc(-c4cc5c(-c6cccc(F)c6)cccc5[nH]4)c3c2)c1)C1CCCCC1 [Compound 19, N-(5-(3-(4-(3-Fluorophenyl)-1H-indol-2-yl)-1H-pyrazolo[3,4-b]pyridin-5-yl)pyridin-3-yl)cyclohexanecarboxamide]",> 10,> 10,1.48,11.1,19.2,–
"Cc1ccncc1-c1cnc2[nH]nc(-c3cc4c(-c5ccc(F)cc5)cccc4[nH]3)c2c1 [Compound 27, 3-(4-(4-Fluorophenyl)-1H-indol-2-yl)-5-(4-methylpyridin-3-yl)-1H-pyrazolo[3,4-b]pyridine]",> 10,> 10,3.53,13.9,41.7,–
"CC(C)(C)C(=O)Nc1cncc(-c2cnc3[nH]nc(-c4cc5c(-c6ccc(F)cc6)cccc5[nH]4)c3c2)c1 [Compound 30, N-(5-(3-(4-(4-Fluorophenyl)-1H-indol-2-yl)-1H-pyrazolo[3,4-b]pyridin-5-yl)pyridin-3-yl)pivalamide]",> 10,> 10,2.05,13.9,42.8,–
